Tests used:
Alternaria solani = assay: Activity against early blight of tomato caused by Alternaria solani; assay type: in vivo; conditions: individual active compound, 5 days after infection
Experimental: (§1) The active compounds were prepared separately or jointly as a stock solution comprising 0.25% by weight of active compound in acetone or DMSO. 1% by weight of the emulsifier Uniperol® EL (wetting agent having emulsifying and dispersing action based on ethoxylated alkylphenols) was added to this solution, and the mixture was diluted with water to the desired concentration.
(§2) Evaluation was carried out by determining the infected leaf areas in percent. These percentages are converted into efficacies.
(§3) The efficacy (E) is calculated as follows using Abbot's formula: E=(1−α/β)·100 α corresponds to the fungal infection of the treated plants in % and • β corresponds to the fungal infection of the untreated (control) plants in %
(§4) An efficacy of 0 means that the infection level of the treated plants corresponds to that of the untreated control plants; an efficacy of 100 means that the treated plants were not infected.
(§5) The expected efficacies of the active compound mixtures are determined using Colby's formula [S. R. Colby, Weeds 15, 20-22 (1967)] and compared with the observed efficacies.
(§6) Colby's formula: E=x+y−x·y/100 • E expected efficacy, expressed in % of the untreated control, when using the mixture of the active compounds A and B at the concentrations a and b • x efficacy, expressed in % of the untreated control, when using active compound A at a concentration of a
(§7) y efficacy, expressed in % of the untreated control, when using active compound B at a concentration of b
Leaves of potted plants of the cultivar “Groβe Fleischtomate St. Pierre” were sprayed to runoff point with an aqueous suspension having the concentration of active compounds stated below. The next day, the leaves were infected with an aqueous zoospore suspension of Alternaria solani in 2% biomalt solution having a density of 0.17×10^6 spores/ml. The plants were then placed in a water-vapor-saturated chamber at temperatures of between 20 and 22° C. After 5 days, the infection on the leaves of the untreated, but infected control plants had developed to such an extent that the infection could be determined visually in %.

Botrytis cinerea = assay: Activity against gray mold on bell pepper leaves caused by Botrytis cinerea; assay type: in vivo; conditions: individual active compound
Experimental: as §1
Bell pepper seedlings of the cultivar “Neusiedler Ideal Elite” were, after 4-5 leaves were well developed, sprayed to runoff point with an aqueous suspension having the concentration of active compound stated below. The next day, the treated plants were inoculated with a spore suspension of Botrytis cinerea which contained 1.7×10^6 spores/ml in a 2% strength aqueous biomalt solution. The test plants were then placed in a climatized chamber at 22-24° C. and high atmospheric humidity. After 5 days, the extent of the fungal infection on the leaves could be determined visually in %.
as §2, §3, §4, §5, §6, §7

[1] = concentration in the spray liquor 0.25, 5 days after inoculation
[2] = concentration in the spray liquor 1, 5 days after inoculation
[3] = concentration in the spray liquor 4, 5 days after inoculation

SMILES | Efficacy in % of the untreated control (Alternaria solani; 0.25 ppm in the spray liquor) [%] | Efficacy in % of the untreated control (Alternaria solani; 1 ppm in the spray liquor) [%] | Efficacy in % of the untreated control (Alternaria solani; 4 ppm in the spray liquor) [%] | Efficacy in % of the untreated control (Botrytis cinerea; [1]) [%] | Efficacy in % of the untreated control (Botrytis cinerea; [2]) [%] | Efficacy in % of the untreated control (Botrytis cinerea; [3]) [%] | Efficacy in % of the untreated control (Botrytis cinerea; concentration in the spray liquor 16, 5 days after inoculation) [%]
N#Cc1sc2c(=O)c3ccccc3c(=O)c=2sc1C#N [I, dithianon] | 0 | 0 | 0 | 0 | 0 | 0 | 0
CC1(C)CCC(Cc2ccc(Cl)cc2)C1(O)Cn1cncn1 (centres unmarked) [II-1, metconazole] | 2 | 63 |  | 0 | 49 |  | 
Fc1ccc(C2(Cn3cncn3)OC2c2ccccc2Cl)cc1 (centres unmarked) [II-2, epoxiconazole] | 63 | 75 |  | 9 | 9 |  | 
CC(C)(C)C(O)(CCc1ccc(Cl)cc1)Cn1cncn1 (centres unmarked) [II-4, tebuconazole] | 0 | 63 |  | 0 | 0 | 0 | 

— patent publication US20050245550A1, “Fungicidal mixtures based on the dithianon” (priority 2002, published 2005)
